According to patent publication US11702417B2, “Compounds for improving mRNA splicing” (The General Hospital Corporation, priority 2015, dated 2023):
Where two headings read alike, the source gives them in different places.

System: FD (familial dysautomonia) IKBKAP minigene, exon 20 inclusion, in HEK293T cells
Assay: Primary splicing assay (FD IKBKAP minigene, Firefly/Renilla luciferase reporter in HEK293T)
Assay type: cell-based, human
Conditions: for Emax / EC (maximum kinetin efficacy): Homo sapiens, HEK-293T; for EC (maximum kinetin efficacy): HEK293T, read-out: ECk (compound concentration at which the maximum kinetin efficacy (200 μM) is reached)
Experimental: As used herein, the expression “ECk” refers to the compound concentration at which the maximum kinetin efficacy (200 μM) is reached.
Splicing analysis was made possible by using an FD (familial dysautomonia) IKBKAP minigene which contained exon 19 through exon 21, including intervening introns, and also the T→C Thymine to cytosine transition located 6 base-pairs from the end of IKBKAP exon 20; See SEQ ID NO:3 for the complete sequence of plasmid pcDNA3.1/V5HisTOPO with Renilla-Familial Dysautonomia minigene-Firefly. Firefly luciferase (SEQ ID NO:14) was utilized as a splicing reporter, located downstream of exon 21, and Renilla luciferase (SEQ ID NO:13) was used as a control, located upstream of exon 19. The sequence of exon 19 is presented as SEQ ID NO:7; the Intron between Exon 19 and Exon 20 is SEQ ID NO:8; exon 20 is SEQ ID NO:9; the intron between […]; exon 21 is SEQ ID NO: 11, and the spliced sequence of exons 19-20-21 is SEQ ID NO:12. HEK293T cells were plated in a 6-well plate 24 hours prior to transfection. Transfection was carried out using a mixture of Opti-MEM (GIBCO ref. 31985), IKBKAP minigene, and Fugene HID (PROMEGA ref. E2311), incubated in DMEM media containing HEK293T cells at 37° C. The ratio of Opti-MEM, minigene, and Fugene was kept at approximately 9:1.5:1, with a total volume of 150 μL of transfection mixture applied per well.
After 4 hours of transfection, the cells were then plated in a 96-well plate coated with poly-L-lysine (SIGMA cat.P4707) for treatment scheduled 24 hours later. […] After 24 hours of treatment, cells were washed in the poly-L-lysine coated 96-well plate using PBS and subsequently harvested using Passive Lysis Buffer (Promega cat.E196). Cell lysate was transferred to a black and white 96-well plate and analyzed for splicing correction using a Glomax luminometer (PROMEGA GloMax® 96 Microplate Luminometer w/Dual Injectors cat.E6521) and Promega Dual Glo Firefly and Stop and Glo Renilla reagents (Cat.E196). The compound's ability to correct splicing and promote exon 20 inclusion was marked by an increase in Firefly signal. Renilla signal, which is independent of exon 20 inclusion, was used to correct for cell number. Using the ratio of Firefly to Renilla signal, a dose response curve was produced, which referenced kinetin and DMSO Firefly/Renilla ratios as positive and negative controls, respectively.

[1] = max efficacy in Primary Assay, Firefly/Renilla ratio, kinetin and DMSO as positive and negative controls, 24 hours of treatment, read-out: Emax (%)
[2] = Firefly/Renilla ratio, 24 hours of treatment

SMILES: Clc1cc(NCc2nccs2)n2ncnc2n1 [(281)]
- Emax [1]: 17%

SMILES: Clc1nc(NCc2ccco2)c2cn[nH]c2n1 [(85)]
- Emax [1]: 96%

SMILES: FC1(F)CC(COc2nc3c(NCc4ccco4)nc(Cl)nc3[nH]2)C1 [(387)]
- EC (maximum kinetin efficacy) [2]: 0.33 µM
- Emax [1]: 238%

SMILES: O=C1OCCN1CCOc1nc2c(NCc3nccs3)nc(Cl)nc2[nH]1 [(394)]
- Emax [1]: 4.8%

SMILES: Cc1nc2c(NCc3ccco3)c(C(N)=O)cnc2[nH]1 [(171)]
- Emax [1]: 48%

SMILES: FC(F)(F)CCn1ccc2c(NCc3ccco3)nc(Cl)nc21 [(160)]
- Emax [1]: 85%

SMILES: COc1nc2c(NCc3nccs3)nc(C#N)nc2[nH]1 [(385)]
- Emax [1]: 46%

SMILES: OCCn1cc(F)c2c(NCc3ccncc3)nc(Cl)nc21 [(135)]
- EC (maximum kinetin efficacy) [2]: 9.06 µM
- Emax [1]: 194%

SMILES: CNc1nc2c(NCc3nccs3)nc(Cl)nc2[nH]1 [(245)]
- EC (maximum kinetin efficacy) [2]: 15.4 µM
- Emax [1]: 122%

SMILES: c1coc(CNc2ccnc3[nH]cnc23)c1 [(48)]
- EC (maximum kinetin efficacy) [2]: 72.8 µM

SMILES: CCCOc1nc2c(NCc3nccs3)nc(Cl)nc2n1CCO [(312)]
- EC (maximum kinetin efficacy) [2]: 2.29 µM
- Emax [1]: 195%

SMILES: O=C(c1cc2c(NCc3ccco3)nc(Cl)nc2[nH]1)N1CCCC1 [(190)]
- Emax [1]: 68%

SMILES: Clc1nc(NCc2ccncn2)c2nc(OC3COC3)[nH]c2n1 [(267)]
- EC (maximum kinetin efficacy) [2]: 2.4 µM
- Emax [1]: 183%

SMILES: OCCOc1nc2c(NCc3ccncn3)nc(Cl)nc2[nH]1 [(309)]
- EC (maximum kinetin efficacy) [2]: 2.08 µM
- Emax [1]: 194%

SMILES: Clc1nc(NCc2nccs2)c2nc(OC3COC3)[nH]c2n1 [(265)]
- EC (maximum kinetin efficacy) [2]: 7.33 µM
- Emax [1]: 119%

SMILES: c1csc(CNc2[nH]cnc3ncnc2-3)c1 [(438)]
- Emax [1]: 44%

SMILES: CNc1nc2c(NCc3ccncn3)nc(Cl)nc2[nH]1 [(247)]
- EC (maximum kinetin efficacy) [2]: 5.41 µM
- Emax [1]: 215%

SMILES: Clc1nc(NCc2ccccn2)c2cc[nH]c2n1 [(350)]
- Emax [1]: 49.5%

SMILES: CC(C)c1nc(NCc2ccco2)c2nc[nH]c2n1 [(67)]
- Emax [1]: 13%

SMILES: OCc1c[nH]c2nc(Cl)nc(NCc3ccco3)c12 [(109)]
- Emax (max efficacy, Firefly only, footnote c: Renilla interference/Firefly only, read-out: Emax (%) Firefly only): 128%
- ECk, Firefly only (Renilla interference/Firefly only (footnote c)): 12.16 µM⁻¹

SMILES: Cc1cn(CCO)c2nc(Cl)nc(NCc3ccncn3)c12 [(128)]
- EC (maximum kinetin efficacy) [2]: 15.4 µM
- Emax [1]: 155%

SMILES: OCCn1cc(Cl)c2c(NCc3ccco3)nc(Cl)nc21 [(211)]
- EC (maximum kinetin efficacy) [2]: 7.73 µM
- Emax [1]: 204%

SMILES: CNCc1nc2c(NCc3ccco3)nc(Cl)nc2[nH]1 [(235)]
- Emax [1]: 80%

SMILES: Clc1nc(NCc2ccco2)c2nc(C3CCC3)[nH]c2n1 [(231)]
- Emax [1]: 77%

SMILES: OCCn1ccc2c(NCc3ccncn3)nc(Cl)nc21 [(127)]
- EC (maximum kinetin efficacy) [2]: 5.45 µM
- Emax [1]: 264%

SMILES: Clc1nc(NCc2nccs2)c2nc(OCc3ccncc3)[nH]c2n1 [(507)]
- EC (maximum kinetin efficacy) [2]: 0.77 µM
- Emax [1]: 167%

SMILES: Fc1ccc(CCNc2ncnc3[nH]cnc23)cc1 [(442)]
- Emax [1]: 58.6%

SMILES: FC(F)(F)CCOc1nc2c(NCc3nccs3)nc(Cl)nc2[nH]1 [(391)]
- EC (maximum kinetin efficacy) [2]: 1.02 µM
- Emax [1]: 193%

SMILES: CNCCn1ccc2c(NCc3ccco3)nc(Cl)nc21 [(213)]
- Emax [1]: 36%

SMILES: Clc1nc(NCc2ccncn2)c2nc(OCc3nccs3)[nH]c2n1 [(340)]
- EC (maximum kinetin efficacy) [2]: 0.95 µM
- Emax [1]: 220%

SMILES: COc1nc(NCc2ccco2)c2nc(OC)[nH]c2n1 [(365)]
- Emax [1]: 22.4%

SMILES: Cn1cccc1CNc1nc(Cl)nc2[nH]ccc12 [(360)]
- Emax [1]: 12.3%

SMILES: CCNc1nc2c(NCc3ccco3)nc(Cl)nc2[nH]1 [(243)]
- EC (maximum kinetin efficacy) [2]: 17 µM
- Emax [1]: 120%

SMILES: Clc1nc(NCc2cccnc2)c2cc[nH]c2n1 [(355)]
- Emax [1]: 26%

SMILES: c1ccc(-c2c[nH]c3ncnc(NCc4ccco4)c23)cc1 [(83)]
- Emax [1]: 4%

SMILES: Cc1ccoc1CNc1ncnc2[nH]cnc12 [(54)]
- Emax [1]: 13%

SMILES: Clc1nc(NCc2ccncn2)c2nc(C3CC3)[nH]c2n1 [(144)]
- EC (maximum kinetin efficacy) [2]: 7.7 µM
- Emax [1]: 127%

SMILES: CCCCOc1nc2c(NCc3ccco3)nc(Cl)nc2[nH]1 [(311)]
- EC (maximum kinetin efficacy) [2]: 0.56 µM
- Emax [1]: 221%

SMILES: CCOc1nc2c(NCc3ccco3)nc(Cl)nc2[nH]1 [(233)]
- EC (maximum kinetin efficacy) [2]: 1.59 µM
- Emax [1]: 152%

SMILES: CC(C)Oc1nc2c(NCc3ccco3)nc(Cl)nc2[nH]1 [(239)]
- EC (maximum kinetin efficacy) [2]: 2.6 µM
- Emax [1]: 147%

SMILES: O=C(O)COc1nc2c(NCc3nccs3)nc(Cl)nc2[nH]1 [(511)]
- Emax [1]: 35.1%

SMILES: Clc1nc(NCc2ccnnc2)c2cc[nH]c2n1 [(176)]
- Emax [1]: 48%

SMILES: O=c1[nH]c2c(NCc3nccs3)nc(Cl)nc2n1C1CCCCO1 (stereo not drawn) [(344)]
- Emax [1]: 18.4%

SMILES: O=C1CCCN1CCOc1nc2c(NCc3ccco3)nc(Cl)nc2[nH]1 [(396)]
- Emax [1]: 38.7%

SMILES: Clc1nc(NCc2ccco2)c2nc(OCCOc3ccccc3)[nH]c2n1 [(481)]
- EC (maximum kinetin efficacy) [2]: 4.14 µM
- Emax [1]: 93.4%

SMILES: Clc1nc(NCc2ccco2)c2nc(-c3cccnc3)[nH]c2n1 [(88)]
- Emax [1]: 33%

SMILES: COCCCOc1nc2c(NCc3ccncc3)nc(Cl)nc2[nH]1 [(291)]
- EC (maximum kinetin efficacy) [2]: 3.47 µM
- Emax [1]: 165%

SMILES: CCCOc1nc2nc(Cl)nc(NCc3nccs3)c2n1C [(335)]
- Emax [1]: 35%

SMILES: OCCOc1nc2c(NCc3ccncc3)nc(Cl)nc2[nH]1 [(315)]
- EC (maximum kinetin efficacy) [2]: 2.52 µM
- Emax [1]: 165%

SMILES: CNC(=O)Cn1ccc2c(NCc3ccco3)nc(Cl)nc21 [(161)]
- Emax [1]: 65%

SMILES: Cc1[nH]c2nc(Cl)nc(NCc3ccco3)c2c1F [(159)]
- Emax (max efficacy in Primary Assay, value flagged footnote a: Firefly inhibitor, read-out: Emax (%)): 228%
- ECk (RT-PCR) (determined by RT-PCR, footnote a Firefly inhibitor, footnote b Renilla interference): 1 to 10 µM

SMILES: CNC(=O)c1cc2c(NCc3ccco3)nc(Cl)nc2[nH]1 [(187)]
- Emax [1]: 111%

SMILES: CNc1nc2c(NCc3ccco3)nc(Cl)nc2n1CCO [(202)]
- EC (maximum kinetin efficacy) [2]: 9.35 µM
- Emax [1]: 137%

SMILES: CC(C)(C)COc1nc2c(NCc3ccco3)nc(Cl)nc2[nH]1 [(478)]
- Emax [1]: 84.1%

SMILES: COCc1c[nH]c2nc(Cl)nc(NCc3ccco3)c12 [(158)]
- EC (maximum kinetin efficacy) [2]: 13.4 µM
- Emax [1]: 20%

SMILES: Clc1nc(NCc2ccco2)c2nc(OCC3CCCC3)[nH]c2n1 [(338)]
- EC (maximum kinetin efficacy) [2]: 1.1 µM
- Emax [1]: 222%

SMILES: FC(F)(F)COc1nc2c(NCc3ccncc3)nc(Cl)nc2[nH]1 [(299)]
- EC (maximum kinetin efficacy) [2]: 1.3 µM
- Emax [1]: 216%

SMILES: OCCn1cnc2c(NCc3ccco3)nc(Cl)nc21 [(73)]
- EC (maximum kinetin efficacy) [2]: 17.1 µM
- Emax [1]: 133%

SMILES: CNOc1nc2c(NCc3ccco3)nc(Cl)nc2[nH]1 [(280)]
- Emax [1]: 25%

SMILES: Fc1cccnc1CNc1nc(Cl)nc2[nH]ccc12 [(495)]
- Emax [1]: 13.9%

SMILES: N#Cc1nc(NCc2ccco2)c2nc[nH]c2n1 [(47)]
- Emax [1]: 99%

SMILES: Cc1cc2c(NCc3nccs3)nc(Cl)nc2[nH]1 [(147)]
- Emax [1]: 80%

SMILES: CNC(=O)c1nc2c(NCc3ccncc3)nc(Cl)nc2[nH]1 [(250)]
- EC (maximum kinetin efficacy) [2]: 62.8 µM
- Emax [1]: 63%

SMILES: c1nc2nc[nH]c(NC3CCCCCC3)c-2n1 [(512)]
- Emax [1]: 43.7%

SMILES: CNC(=O)c1nc2c(NCc3ccco3)nc(Cl)nc2[nH]1 [(262)]
- EC (maximum kinetin efficacy) [2]: 28.4 µM
- Emax [1]: 64%

SMILES: Fc1cnccc1CNc1nc(Cl)nc2[nH]ccc12 [(226)]
- EC (maximum kinetin efficacy) [2]: 1.8 µM
- Emax [1]: 191%

SMILES: C[C@@H](C#N)n1ccc2c(NCc3ccco3)nc(Cl)nc21 [(216)]
- Emax [1]: 16%

SMILES: OCCCn1ccc2c(NCc3ccco3)nc(Cl)nc21 [(108)]
- Emax (max efficacy, value marked (RT-PCR), footnote a: Firefly inhibitor, read-out: Emax (%) (RT-PCR)): 172%

SMILES: Clc1nc(NCc2ccncn2)c2nc(C3CCC3)[nH]c2n1 [(236)]
- Emax [1]: 83%

SMILES: CSc1nc(NCc2nccs2)n2ncnc2n1 [(342)]
- Emax [1]: 16%
